Test [1] addresses T1, 5-HT6 receptor (Homo sapiens (Human), UniProt P50406). The test can be described thus: Functional assay: inhibition of serotonin-induced intracellular cAMP (LANCE cAMP) in HEK 293 cells expressing 5-HT6 receptor. Format: cell-based. Particulars: read-out: IC50 of serotonin 5-HT6 receptor inhibition in the setting of functional assay. Here is the method: Determination of antagonistic activity of compounds of general formulas 1 and 2 towards 5-HT6 receptors. Compounds of general formulas 1 and 2 were tested for their ability to prevent 5-HT6 receptors activation by serotonin. HEK 293 cells (cells of human embryo's kidney) with artificially expressed 5-HT6 receptor, activation of which by serotonin leads to increasing the concentration of intracellular cAMP were used. The content of intracellular cAMP was determined using reagent kit LANCE cAMP (PerkinElmer) according to the method described by the manufacturer of the kit [http://las.perkinelmer.com/content/Manuals/MAN_LANCEcAMP384KitUser.pdf].
Effectiveness of compounds was estimated by their ability to reduce the content of intracellular cAMP induced by serotonin.

Test [2] deals with T1, 5-HT6 receptor. In words: Competitive radioligand binding ([3H] Lysergic acid diethylamide) to membranes of HeLa cells expressing 5-HT6 receptor. Particulars: 1.5 nM [3H] Lysergic acid diethylamide, HeLa cell membranes; for IC50: read-out: IC50 of serotonin 5-HT6 receptor inhibition in the setting of competitive binding; for Ki: read-out: Ki of serotonin 5-HT6 receptor inhibition in the setting of competitive binding. Here is the method: Activity determination of serotonin 5-HT6 receptor antagonists of the general formula 1 in the setting of competitive binding to serotonin 5-HT6 receptors.
Screening of disclosed compounds for their potential ability to interact with serotonin 5-HT6 receptors was carried out by method of radioligand binding. For this purpose membrane species were prepared from HeLa cells expressing recombinant human 5-HT6 receptor by means of their homogenization in glass homogenizer with subsequent separation of plasmatic membranes from cell nucli, mitochondria's and cell wreckages by differential centrifugation. Determination of tested compounds binding with 5-HT6 receptors was carried out according to the method described in [Monsma F J Jr, Shen Y, Ward R P, Hamblin M W and Sibley D R, Cloning and expression of a novel serotonin receptor with high affinity for tricyclic psychotropic drugs. Mol. Pharmacol. 43:320-327, 1993]. In the preferred embodiment membrane preparations were incubated with radioligand (1.5 nM [^3H] Lysergic acid diethylamide) without and in the presence of investigated compounds for […] at 37° C. in medium consisting of […], pH 7.4, 150 mM NaCl, 2 mM Ascorbic Acid, 0.001% BSA. After incubation the samples were filtered in vacuo on glass-microfiber filters G/F (Millipor, USA), filters were washed three times with cold solution of medium and radioactivity was measured by scintillation counter MicroBeta 340 (PerkinElmer, USA). Nonspecific binding which made up 30% of overall binding was determined by incubation of membrane preparations with radioligand in the presence of 5 μM Serotonin (5-HT). Methiothepin was used as positive control. Binding of tested compounds with the receptor was determined by their ability to displace the radioligand and expressed in percent of displacement. The percent of displacement was calculated according to the following equation:
[formula] wherein: TA—was overall radioactivity in presence of radioligand only, CA—was radioactivity in presence of radioligand and tested compound and NA—was radioactivity in presence of radioligand and Serotonin (5 μM).

The subject of test [3] is aged male mice of BALB/c line. The test can be described thus: Passive Avoidance of mice in the Shuttle Chamber, memory disturbed by Scopolamine. The class given is in vivo. Particulars: Scopolamine 0.3 mg/kg, 30 minutes before training. As to the method:
A shuttle chamber (Ugo Basile, Italy) consisted of two sections was used. The walls of one section were opaque while the second section had transparent cover. The sections were connected through a hole which could be overlapped by vertical door. The floor was made of transverse metal bars on which DC current impulses could be fed. Experiments were carried out in aged male mice of BALB/c line weighing 20-24 grams. On the first day of experiment 30 minutes before training mice were injected […] with physiological solutions of Scopolamine (0.3 mg/kg) or Scopolamine in combination with active ingredient 1.2(3). Each group consisted of at least 8 animals. Animals were placed in light section, and latent period of the first entry into dark chamber was registered. Then vertical door was closed and the animal was punished by 0.6 mA DC current for 3 seconds. After that the animal was returned to its living cage. In 22-24 hours the same animal was placed again in light section of the shuttle chamber and the latent period of its first entry into the dark section, the total time of its stay in the light section and the number of entries into the dark section was registered. Each monitoring lasted for 5 minutes. The experiment was carried out during the day time in isolated laboratory using white noise at level of about 70 decibel above human hearing threshold. […]

The test system of test [4] is mice. In words: Passive Avoidance of mice in the Shuttle Chamber, memory disturbed by MK-801. The following applies: MK-801 0.1 mg/kg, 30 minutes before training. Format: in vivo. Here is the method: A shuttle chamber (Ugo Basile, Italy) consisted of two sections was used. The walls of one section were opaque while the second section had transparent cover. The sections were connected through a hole which could be overlapped by vertical door. The floor was made of transverse metal bars on which DC current impulses could be fed. Experiments were carried out in aged male mice of BALB/c line weighing 20-24 grams.
On the first day of experiment 30 minutes before training mice were injected […] with physiological solutions of Scopolamine (0.3 mg/kg) or Scopolamine in combination with active ingredient 1.2(3). Each group consisted of at least 8 animals. Animals were placed in light section, and latent period of the first entry into dark chamber was registered. Then vertical door was closed and the animal was punished by 0.6 mA DC current for 3 seconds. After that the animal was returned to its living cage. In 22-24 hours the same animal was placed again in light section of the shuttle chamber and the latent period of its first entry into the dark section, the total time of its stay in the light section and the number of entries into the dark section was registered. Each monitoring lasted for 5 minutes.
The experiment was carried out as in example 7. […]

For test [5], the system named is mice. In words: Mice Behavior in the Elevated Plus Maze. Format: in vivo. The text has this:
Anxiolytic (tranquilizing) action of compounds of general formulas 1 and 2 in the test “Mice Behavior in the Elevated Plus Maze”. The length of each arm in the labyrinth is 30 cm, the width is 5 cm, and the height of walls is 15 cm. Two opposite arms are closed from sides and end faces by transparent walls, the other two arms are lit and opened. A mouse was placed in the center of maze and for the next five minutes the number of entries the opened and closed arms and the time spent in each type of arms was registered. […] The animals usually avoid the open arms (the preference index is between 0.2 and 0.3). Compounds with tranquilizing action increase this index up to 0.5-0.6 or even more and reduce the number of defecations without changing the overall motion activity of the mice (the total number of their entries to the arms).

Results on 5 compounds are retold here after patent US8629154B2, “Substituted cycloalcano[e and d] pyrazolo [1,5-a]pyrimidines/antagonists of serotonin 5-HT6 receptors and methods for production and the use thereof” (priority 2008, dated 2014).

T1 sequence (P50406 whole entry): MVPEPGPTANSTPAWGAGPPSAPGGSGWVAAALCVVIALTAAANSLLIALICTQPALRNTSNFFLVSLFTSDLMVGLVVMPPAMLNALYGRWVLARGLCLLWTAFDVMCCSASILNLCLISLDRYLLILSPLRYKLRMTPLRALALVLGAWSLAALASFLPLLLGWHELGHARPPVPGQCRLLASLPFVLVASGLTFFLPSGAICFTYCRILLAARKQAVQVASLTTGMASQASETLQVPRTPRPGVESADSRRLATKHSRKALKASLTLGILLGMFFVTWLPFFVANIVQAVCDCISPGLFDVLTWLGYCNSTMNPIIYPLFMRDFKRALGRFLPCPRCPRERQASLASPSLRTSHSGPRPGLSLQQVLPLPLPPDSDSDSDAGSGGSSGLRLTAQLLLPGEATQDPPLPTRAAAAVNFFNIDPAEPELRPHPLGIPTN

For the compound `CSc1nn2c(C)c3c(nc2c1S(=O)(=O)c1ccccc1)CCCC3` [2(2)], the IC50 at 5-HT6 receptor [1] came to 7.8 nM. At 5-HT6 receptor [2], the IC50 turned out to be 1.46 nM and the Ki was 0.68 nM.

Regarding `CSc1nn2c3c(c(C)nc2c1S(=O)(=O)c1ccccc1)CCCC3` [1.2(3), 5-methyl-2-methylsulfanyl-3-(phenylsulfonyl)-6,7,8,9-tetrahydrocyclohexa[e]pyrazolo[1,5-a]pyrimidine], at 5-HT6 receptor [1], the IC50 is 32 nM. In addition, the “Nootropic action (enhancement of memory disturbed by Scopolamine)” value in test [3] is listed as “confirm nootropic action”. The “Nootropic action (enhancement of memory disturbed by MK-801)” value in the test with mice [4] is given as “produce nootropic effect”. On 5-HT6 receptor [2], the IC50 amounted to 0.948 nM and the Ki worked out at 0.44 nM. Further, the “Anxiolytic (tranquilizing) action” value in the test on mice [5] is “exhibits an anxiolytic (tranquilizing) action which is comparable with the activity of Buspirone and Lorasepam”.

In the case of `CSc1nn2c3c(cnc2c1S(=O)(=O)c1ccccc1)CCCC3` [1.2(1), 2-methylsulfanyl-3-(phenylsulfonyl)-6,7,8,9-tetrahydrocyclohexa[e]pyrazolo[1,5-a]pyrimidine], the IC50 on 5-HT6 receptor [1] was found to be 35 nM. For the same compound, on 5-HT6 receptor [2], the IC50 stood at 1.18 nM and the Ki came out at 0.549 nM.

In the case of `CSc1nn2cc3c(nc2c1S(=O)(=O)c1ccccc1)CCCC3` [2(1)], at 5-HT6 receptor [1], the IC50 turned out to be 479 nM. Also, at 5-HT6 receptor [2], the IC50 was found to be 17.2 nM and the inhibitory constant (Ki) was 7.97 nM.

Turning to `CSc1nn2c3c(cnc2c1S(=O)(=O)c1ccccc1)CCC3` [1.1(1), 2-methylsulfanyl-3-(phenylsulfonyl)-7,8-dihydro-6H-cyclopenta[e]pyrazolo[1,5-a]pyrimidine], at 5-HT6 receptor [1], the IC50 is 27 nM. Moreover, on 5-HT6 receptor [2], the IC50 stood at 0.986 nM and the inhibitory constant (Ki) was determined as 0.458 nM.

One may read the IC50 as the point on the concentration scale where inhibition reaches its midpoint. The Ki is the equilibrium dissociation constant of an inhibitor or competing ligand from its target.
